Laboratory results published in patent US20180303853A1, “COMPOSITIONS AND METHODS FOR TREATING BACTERIAL INFECTIONS USING CEFTAROLINE” (priority 2017, published 2018).

Key:
[1] = Example 5 CAP study, safety
Procedure: (§2) Study drug: Ceftaroline fosamil was administered in two consecutive 300 mg intravenous (IV) infusions over 30 minutes, every 12 hours (q12h). The 600-mg dose of ceftaroline fosamil infused over 60 minutes was split into two infusions in order to maintain the blind. For subjects with moderate renal impairment (30 mL/min<CrCl≤50 mL/min), as estimated by the Cockroft-Gault formula, unblinded pharmacy staff or unblinded study staff could adjust the dose of ceftaroline fosamil to two consecutive 200 mg infusions and readjust dose to two 300 mg infusions when renal function improved (CrCl>50 mL/min). The duration of treatment was between 5 to 7 days.
(§3) All subjects initially received two doses (500 mg every 12 hours) of oral adjunctive therapy with clarithromycin following randomization.
(§4) All subjects who received any amount of study drug were included in the safety analysis. Safety measures included monitoring for adverse events (AE) up to TOC and serious adverse events (SAE) through LFU; recording vital signs, physical examination, electrocardiogram (ECG), and clinical laboratory findings (clinical chemistry, hematology, and urinalysis); at prespecified times throughout the study.

[2] = system: CYP1A1, CYP1A2, CYP2A6, CYP2B6, CYP2C8, CYP2C9, CYP2C19, CYP2D6, CYP2E1 and CYP3A4; assay: Cytochrome P450 inhibition in human liver microsomes; format: in vitro ADME; settings: microsomes
[3] = human, in vivo
Procedure: (§5) Study-Drug: Ceftaroline fosamil was administered in two consecutive 300 mg intravenous (IV) infusions over 30 minutes, every 12 hours (q12h). The 600-mg dose of ceftaroline fosamil infused over 60 minutes was split into two infusions in order to maintain the blind. For subjects with moderate renal impairment (30 ml/min<CrCl≤50 ml/min), as estimated by the Cockroft-Gault formula, unblinded pharmacy staff or unblinded study staff could adjust the dose of ceftaroline fosamil to two consecutive 200 mg infusions and readjust dose to two 300 mg infusions when renal function improved (CrCl>50 mL/min). The duration of treatment was between 5 to 7 days.
(§6) All subjects who received any amount of study drug were included in the safety analysis. Safety measures included monitoring for adverse events (AE) up to TOC and serious adverse events (SAE) through LFU; recording vital signs, physical examination, electrocardiogram (ECG), and clinical laboratory findings (clinical chemistry, hematology, and urinalysis), at prespecified times throughout the study.

[4] = system: CYP1A2, CYP2B6, CYP2C8, CYP2C9, CYP2CI9, or CYP3A4/5; assay: CYP induction in human hepatocytes; format: in vitro ADME
[5] = system: community-acquired pneumonia (CAP); assay: Example 4 Phase 3 study, ceftaroline vs ceftriaxone in CAP, efficacy; format: in vivo, human
From the text: The secondary objectives of the study were to evaluate the following: clinical response at end-of-therapy (EOT); the microbiological favorable outcome rate at TOC; the overall (clinical and radiographic) success rate at TOC; the clinical and microbiological response by pathogen at TOC; clinical relapse at late follow-up (LFU); microbiological reinfection/recurrence at LFU; and safety.
The following criteria were used for evaluation: The primary efficacy outcome measures were the pet-subject clinical cure rate at test-of-cure (TOC) in the CE and MITTE Populations Subjects were considered clinically cured at TOC if they had total resolution of all signs and symptoms of the baseline infection, or improvement of the infection such that no further antimicrobial therapy was necessary.
Non-inferiority was concluded if the lower limit of the 95% CI was higher than −10%.

[6] = human, in vivo; remark: listed apart in the source
Procedure: The pharmacokinetics of ceftaroline were evaluated in adolescent patients (ages 12 to 17) with normal renal function.
No dose adjustment is required based on gender.

[7] = system: complicated skin and skin structure infections (cSSSI); assay: Two Phase 3 studies in cSSSI, clinical cure at TOC; format: in vivo, human; settings: co-primary CE and MITT populations
Procedure: A total of 1396 adults with clinically documented complicated skin and skin structure infections (cSSSI) were enrolled in two randomized, multi-center, multinational, double-blind, studies comparing 600 mg ceftaroline fosamil administered intravenously over 1 hour every 12 hours to vancomycin plus aztreonam [1 g vancomycin administered intravenously over 1 hour followed by 1 g aztreonam administered intravenously over 1 hour every 12 hours]. Patients with cSSSI (deep/extensive cellulitis, a major abscess, a wound infection [surgical or traumatic], infected insect bites, burns or ulcers, lower extremity infection in patients with diabetes mellitus or peripheral vascular disease), were enrolled in the studies. Treatment duration was […] days. A switch to oral therapy was not allowed. The Modified Intent-to-Treat (MITT) population included all patients who received any amount of study drug according to their randomized treatment group.
The primary efficacy endpoint was clinical response at the Test of Cure (TOC) visit in the co-primary CE and MITT populations (Table 2). […] In a subgroup analysis (CE population), the comparative clinical cure rates between the ceftaroline group and the vancomycin plus aztreonam group were not affected by age, gender, race, ethnicity, or weight.

[8] = system: MDRSP; assay: Example 5 CAP study, outcome by baseline pathogen; format: in vivo, S. pneumoniae
From the text: (§1) Per-pathogen clinical cure rate and favorable microbiological outcome rate at TOC in the mMITTE and ME Populations;

[9] = system: H. influenzae; assay: Example 4 CAP study, outcome by baseline pathogen; format: in vivo
From the text: as §1

[10] = system: H. parainfluenzae; assay: Example 4 CAP study, outcome by baseline pathogen; format: in vivo
From the text: as §1

[11] = system: S. pneumoniae; assay: Example 4 CAP study, outcome by baseline pathogen; format: in vivo
From the text: as §1

[12] = system: K. pneumoniae; assay: Example 4 CAP study, outcome by baseline pathogen; format: in vivo
From the text: as §1

[13] = system: S. aureus; assay: Example 4 CAP study, outcome by baseline pathogen; format: in vivo
From the text: as §1

[14] = Example 4 CAP study, safety
Procedure: as §5, §6

[15] = human, in vivo; remark: listed apart in the source
[16] = human, in vivo; remark: listed apart in the source
Procedure: as §2, §3, §4

[17] = human, microsomes

CCO/N=C(\C(=O)N[C@@H]1C(=O)N2C(C(=O)[O-])=C(Sc3nc(-c4cc[n+](C)cc4)cs3)CS[C@H]12)c1nsc(N)n1 [Ceftaroline, ceftaroline]
hemolytic anemia [1]: No evidence of hemolytic anemia
percentage of deaths [1]: 1.7%
inhibition of major cytochrome P450 isoenzymes [2]: neither ceftaroline fosamil nor ceftaroline inhibits
Adverse event: COPD [3]: 8 (2.5) %
Adverse event: Diarrhea [3]: 12 (3.8) %
Adverse event: Head ache [3]: 11 (3.5) %
Adverse event: Pleural effusion [3]: 4 (1.3) %
Adverse event: Pneumonia [3]: 8 (2.5) %
study-drug-related TEAE: alanine aminotransferase increased [3]: 0.3%
study-drug-related TEAE: blood creatinine phosphokinase increased [3]: 1.3%
study-drug-related TEAE: heartache [3]: 0.6%
subjects with any study-drug-related TEAEs [3]: 12.4%
induction of CYP isoenzymes [4]: not inducers
Difference (ceftaroline minus ceftriaxone), Clinical Cure Rate at EOT ([5]; Example 4, CE): 6.0%
Difference (ceftaroline minus ceftriaxone), Clinical Success at TOC ([5]; Example 4, CE): 4.9%
Clinical Success at the TOC Visit ([5]; Example 4, CE population): 193 (82.1) %
Per-subject Clinical Cure Rate at the EOT Visit ([5]; Example 4, CE population): 202 (86.0) %
Difference (ceftaroline minus ceftriaxone), Favorable Microbiological Outcome at TOC ([5]; Example 4, ME): 1.8%
Favorable Microbiological Outcome at the TOC Visit ([5]; Example 4, ME population): 72 (84.7) %
Difference (ceftaroline minus ceftriaxone), Clinical Cure Rate at EOT ([5]; Example 4, MITTE): 7.4%
Difference (ceftaroline minus ceftriaxone), Clinical Success at TOC ([5]; Example 4, MITTE): 5.9%
Clinical Success at the TOC Visit ([5]; Example 4, MITTE population): 235 (81.3) %
Per-subject Clinical Cure Rate at the EOT Visit ([5]; Example 4, MITTE population): 249 (86.2) %
Difference (ceftaroline minus ceftriaxone), Favorable Microbiological Outcome at TOC ([5]; Example 4, mMITTE): 0.4%
Favorable Microbiological Outcome at the TOC Visit ([5]; Example 4, mMITTE population): 74 (82.2) %
AUC higher in female vs male subjects (trend) ([6]; both): 6-15%
Cmax higher in female vs male subjects (trend) ([6]; both): 17-22%
mean recovery in the dialysate, share of the administered dose ([6]; 4 h): 21.6%
mean AUC higher than in healthy young adults (18-45 years) ([6]; iv, 600 mg): ~33%
clinical response at TOC, comparison with comparator [7]: non-inferior to vancomycin plus aztreonam
Favorable Microbiological Outcome at TOC by Baseline Pathogen ([8]; Example 5, ME): 2/2 (100.0)
Clinical Cure Rate at the TOC Visit by Baseline Pathogen ([8]; Example 5, ME Population): 2/2 (100.0)
Favorable Microbiological Outcome at TOC by Baseline Pathogen ([9]; Example 4, ME): 13/15 (86.7)
Clinical Cure Rate at the TOC Visit by Baseline Pathogen ([9]; Example 4, ME Population): 13/15 (86.7)
Favorable Microbiological Outcome at TOC by Baseline Pathogen ([10]; Example 4, ME): 9/9 (100.0)
Clinical Cure Rate at the TOC Visit by Baseline Pathogen ([10]; Example 4, ME Population): 9/9 (100.0)
Favorable Microbiological Outcome at TOC by Baseline Pathogen ([11]; Example 4, ME): 35/39 (89.7)
Clinical Cure Rate at the TOC Visit by Baseline Pathogen ([11]; Example 4, ME Population): 33/39 (84.6)
Favorable Microbiological Outcome at TOC by Baseline Pathogen ([12]; Example 4, ME): 6/6 (100.0)
Clinical Cure Rate at the TOC Visit by Baseline Pathogen ([12]; Example 4, ME Population): 6/6 (100.0)
Favorable Microbiological Outcome at TOC by Baseline Pathogen ([13]; Example 4, ME): 11/15 (73.3)
Clinical Cure Rate at the TOC Visit by Baseline Pathogen ([13]; Example 4, ME Population): 10/15 (66.7)
hemolytic anemia [14]: No evidence of hemolytic anemia
incidence of deaths [14]: 2.9%
CL/Fm [15]: 9.60 (1.40) L/h
dose dependence of Cmax and AUC [15]: increased approximately in proportion to increases in dose
t1/2 [15]: 2.66 (0.40) h
Adverse event: Constipation [16]: 7 (2.3) %
TEAEs assessed as drug related by the Investigators [16]: 17.1%
study-drug-related TEAE: headache [16]: 1.0%
study-drug-related TEAE: hepatic enzyme increased [16]: 0.3%
study-drug-related TEAE: sinus bradychardia [16]: 1.0%
metabolic turnover [17]: < 12%
